Laboratory results from patent publication US12358915B2, “METTL3 inhibitory compounds” (STORM THERAPEUTICS LTD., priority 2019, dated 2025).
Read-outs that look alike come from different tables or passages of the source.

Legend:
METTL3/14 = target: T1, METTL3/14 (Homo sapiens, UniProt Q86U44); assay: METTL3/14 methyltransferase assay (METTL3_14 RFMS, RapidFire mass spectrometry); format: biochemical; settings: 5 nM METTL3/14, 0.2 μM RNA substrate, 0.5 μM SAM, lower limit of the assay IC50=5 nM, read-out: METTL3_14 RFMS IC50;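 further: recombinant His-tagged METTL3 with FLAG-tagged METTL14 from baculovirus, SAH product quantified by mass spectrometry against isotope-labelled internal standards, 60 min at room temperature, scaled between no-RNA and DMSO-only wells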
T1 construct: The enzyme used was full-length his-tagged METTL3; His; made in house
T1 sequence (Q86U44 whole entry): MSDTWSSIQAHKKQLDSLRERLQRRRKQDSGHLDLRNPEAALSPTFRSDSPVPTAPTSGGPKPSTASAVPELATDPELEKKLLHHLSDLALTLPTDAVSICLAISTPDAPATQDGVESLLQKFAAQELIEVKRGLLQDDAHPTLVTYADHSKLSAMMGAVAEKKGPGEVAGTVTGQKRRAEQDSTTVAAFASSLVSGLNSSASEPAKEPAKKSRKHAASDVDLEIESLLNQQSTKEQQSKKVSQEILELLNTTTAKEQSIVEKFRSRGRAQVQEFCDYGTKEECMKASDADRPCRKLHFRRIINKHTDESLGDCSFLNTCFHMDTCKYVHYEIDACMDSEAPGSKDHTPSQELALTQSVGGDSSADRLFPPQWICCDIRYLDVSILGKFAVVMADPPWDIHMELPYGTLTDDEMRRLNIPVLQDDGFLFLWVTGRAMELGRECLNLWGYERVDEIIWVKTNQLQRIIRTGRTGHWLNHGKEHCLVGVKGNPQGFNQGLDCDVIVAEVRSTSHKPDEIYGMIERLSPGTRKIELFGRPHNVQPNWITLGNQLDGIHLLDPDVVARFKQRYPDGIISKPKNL
T1 sequence (Q9HCE5 whole entry partner): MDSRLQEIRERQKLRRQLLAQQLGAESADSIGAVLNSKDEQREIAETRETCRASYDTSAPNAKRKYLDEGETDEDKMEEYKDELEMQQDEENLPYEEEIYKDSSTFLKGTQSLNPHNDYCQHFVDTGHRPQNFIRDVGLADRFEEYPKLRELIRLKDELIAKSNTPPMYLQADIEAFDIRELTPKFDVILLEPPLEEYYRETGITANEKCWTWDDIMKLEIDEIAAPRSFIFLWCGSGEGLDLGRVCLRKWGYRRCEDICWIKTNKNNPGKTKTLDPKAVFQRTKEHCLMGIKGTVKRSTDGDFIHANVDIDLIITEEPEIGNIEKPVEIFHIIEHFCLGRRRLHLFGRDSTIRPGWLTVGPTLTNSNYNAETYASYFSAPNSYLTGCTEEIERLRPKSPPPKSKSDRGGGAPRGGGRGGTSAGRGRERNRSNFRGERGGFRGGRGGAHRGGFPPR

MOLM-13 cells = assay: MOLM13 CTG - analysis of cell proliferation (Cell Titre Glo); format: cell-based; settings: Homo sapiens, geometric mean, read-out: CTG MOLM13 cells IC50 GEOMEAN
Procedure: MOLM-13 or MOLM-14 cells were plated, in suspension, in 24 well tissue culture plates at final concentration of 200,000/ml, with or without 50 ng/ml IFNγ. […] Cells were incubated for 4 days at 37° C. at which point 600 μl of cell suspension was removed for Mass spectrometry analysis of m6A. 600 μl of fresh media containing the appropriate concentration of METTL3 inhibitor/IFNγ was added to remaining cell suspensions. Cells where then cultured for a further 7 days, cell suspension was sampled for analysis of proliferation and Cell surface markers periodically.
At regular time points (4, 5, 6 &7) days cells were mixed to maintain a homogenous cell suspension. 25 μl of this cell suspension was removed and added to a white 384 well plate, 25 μl of Cell Titre Glo reagent (Promega) was added, and incubated for 10 mins at room temperature before measurement of luminescence intensity, as per the manufacturers instructions.

IC50 (METTL3/14; Compounds 63-265) | IC50 (MOLM-13 cells) | IC50 (METTL3/14; Compounds 266-351) | Compound
– | 1440 nM | 5.92 nM | OC1(CNCc2ccc3nc(Cn4cc(-c5cc(Cl)cc6[nH]ncc56)nn4)cn3c2)CCC1 [Example 303, 1-[[[2-[[4-(6-chloro-1H-indazol-4-yl)triazol-1-yl]methyl]imidazo[1,2-a]pyridin-6-yl]methylamino]methyl]cyclobutanol]
10.6 nM | 4120 nM | – | O=C(NCc1cn2cc(CNCC3CC(F)(F)C3)ccc2n1)c1cc(=O)n2ccccc2n1 [Compound 83, N-{[6-({[(3,3-difluoro-cyclobutyl)methyl]amino}methyl)imidazo[1,2-a]pyridin-2-yl]methyl}-4-oxo-4H-pyrido [1,2-a]pyrimidine-2-carboxamide]
2730 nM | 13800 nM | – | O=C(NCc1cn2cc(C3COCCN3)ccc2n1)c1cc(=O)n2ccccc2n1 (stereo not shown) [Example 263, N-{[6-(morpholin-3-yl)imidazo[1,2-a]pyridin-2-yl]methyl}-4-oxo-4H-pyrido[1,2-a]pyrimidine-2-carboxamide]
69.1 nM | 8730 nM | – | O=C(NCc1cn2cc(CN3CCCCC3)ccc2n1)c1cc(=O)n2ccccc2n1 [Compound 104, 4-oxo-N-({6-[(piperidin-1-yl)methyl]imidazo[1,2-a]pyridin-2-yl}methyl)-4H-pyrido[1,2-a] pyrimidine-2-carboxamide]
14.9 nM | 3510 nM | – | O=C(NCc1cn2cc(CN3CCC4(CC3)CC4)ccc2n1)c1cc(=O)n2ccccc2n1 [Compound 216, N-{[6-({6-azaspiro[2.5]octan-6-yl}methyl)imidazo [1,2-a]pyridin-2-yl]methyl}-4-oxo-4H-pyrido [1,2-a]pyrimidine-2-carboxamide]
– | 2760 nM | 6.16 nM | Fc1cc(-c2cn(Cc3cn4cc(CNCC5CCCCC5)ccc4n3)nn2)c2cn[nH]c2c1 [Example 320, N-(cyclohexylmethyl)-1-[2-[[4-(6-fluoro-1H-indazol-4-yl)triazol-1-yl]methyl]imidazo[1,2-a]pyridin-6-yl]methanamine]
– | ≥ 30000 nM | 6.95 nM | Oc1cc(-c2cn(Cc3cn4cc(CNCC5(O)CCC5)ccc4n3)nn2)c2cn[nH]c2c1 [Example 267, 4-[1-[[6-[[(1-hydroxycyclobutyl)methylamino]methyl]imidazo[1,2-a]pyridin-2-yl]methyl]triazol-4-yl]-1H-indazol-6-ol]
– | ≥ 30000 nM | 42.1 nM | NC(=O)c1cc(-c2cn(Cc3cn4cc(CNCC5CCC5)ccc4n3)nn2)c2cn[nH]c2c1 [Example 298, 4-[1-[[6-[(cyclobutylmethylamino)methyl]imidazo[1,2-a]pyridin-2-yl]methyl]triazol-4-yl]-1H-indazole-6-carboxamide]
8.14 nM | 1480 nM | – | Brc1cc(-c2cn(Cc3cn4cc(CNCC5CCCCC5)ccc4n3)nn2)c2cn[nH]c2c1 [Example 226, [(2-{[4-(6-bromo-1H-indazol-4-yl)-1H-1,2,3-triazol-1-yl]methyl}imidazo[1,2-a]pyridin-6-yl)methyl](cyclohexylmethyl)amine]
209 nM | 9890 nM | – | O=C(NCc1cn2cc(CNCc3ccccc3)ccc2n1)c1cccc2[nH]ncc12 [Compound 178, N-({6-[(benzylamino)methyl]imidazo [1,2-a]pyridin-2-yl}methyl)-1H-indazole-4-carboxamide]
1860 nM | 13100 nM | – | O=C(NCc1cn2cc(CNC3(c4ccccc4)COC3)ccc2n1)c1cc(=O)n2ccccc2n1 [Compound 89, 4-oxo-N-[(6-{[(3-phenyloxetan-3-yl)amino]methyl}imidazo[1,2-a]pyridin-2-yl)methyl]-4H-pyrido[1,2-a]pyrimidine-2-carboxamide]
111 nM | ≥ 30000 nM | – | O=C(NCc1cn2cc(CCNCc3ccccc3)ccc2n1)c1cc(=O)n2ccccc2n1 [Compound 235, N-({6-[2-(benzylamino)ethyl]imidazo[1,2-a]pyridin-2-yl}methyl)-4-oxo-4H-pyrido[1,2-a]pyrimidine-2-carboxamide]

Second part, the molecule before the results:

Compound | IC50 (METTL3/14; Compounds 63-265) | IC50 (MOLM-13 cells) | IC50 (METTL3/14; Compounds 266-351)
O=C(NCc1cn2cc(CNC3CCC3)ccc2n1)c1cc(=O)n2ccccc2n1 [Compound 126, N-({6-[(cyclobutylamino)methyl]imidazo [1,2-a]pyridin-2-yl}methyl)-4-oxo-4H-pyrido [1,2-a]pyrimidine-2-carboxamide] | 79.8 nM | ≥ 30000 nM | –
CC(C)(C)NCc1ccc2nc(CNC(=O)c3cc(=O)n4ccccc4n3)cn2c1 [Compound 127, N-({6-[(tert-butylamino)methyl]imidazo [1,2-a]pyridin-2-yl}methyl)-4-oxo-4H-pyrido[1,2-a] pyrimidine-2-carboxamide] | 429 nM | ≥ 30000 nM | –
CC(C)(C)C(C)(C)NCc1ccc2nc(CNC(=O)c3cc(=O)n4ccccc4n3)cn2c1 [Compound 195, 4-oxo-N-[(6-{[(2,3,3-trimethylbutan-2-yl)amino]methyl}imidazo [1,2-a]pyridin-2-yl)methyl]-4H-pyrido[1,2-a]pyrimidine-2-carboxamide] | 32.4 nM | 9770 nM | –
CC(C)(C)CNCc1ccc2nc(Cn3cc(-c4cccc5[nH]ncc45)nn3)cn2c1 [Example 250, (2,2-dimethylpropyl)[(2-{[4-(1H-indazol-4-yl)-1H-1,2,3-triazol-1-yl]methyl}imidazo[1,2-a]pyridin-6-yl)methyl]amine] | 11.3 nM | 3000 nM | –
CC1(F)CCN(Cc2ccc3nc(CNC(=O)c4cc(=O)n5ccccc5n4)cn3c2)CC1 [Compound 207, N-({6-[(4-fluoro-4-methylpiperidin-1-yl)methyl]imidazo[1,2-a]pyridin-2-yl}methyl)-4-oxo-4H-pyrido [1,2-a]pyrimidine-2-carboxamide] | 37.9 nM | 10200 nM | –
CCC(C)(C)CNCc1ccc2nc(CNC(=O)c3cc(=O)n4ccccc4n3)cn2c1 [Compound 292, N-[[6-[(2,2-dimethylbutylamino)methyl]imidazo[1,2-a]pyridin-2-yl]methyl]-4-oxo-pyrido[1,2-a]pyrimidine-2-carboxamide] | – | 7190 nM | 20 nM
CCCCNCc1ccc2nc(CNC(=O)c3cc(=O)n4ccccc4n3)cn2c1 [Compound 283, N-[[6-(butylaminomethyl)imidazo[1,2-a]pyridin-2-yl]methyl]-4-oxo-pyrido[1,2-a]pyrimidine-2-carboxamide] | – | 10700 nM | 29.3 nM
O=C(NCc1cn2cc(CNCC3CCC3F)ccc2n1)c1cc(=O)n2ccccc2n1 (stereo not shown) [Compound 214, N-{[6-({[(2-fluorocyclobutyl)methyl]amino}methyl)imidazo [1,2-a]pyridin-2-yl]methyl}-4-oxo-4H-pyrido [1,2-a]pyrimidine-2-carboxamide] | 15.8 nM | 7340 nM | –
O=C(NCc1cn2cc(CNCC3CCC(F)(F)C3)ccc2n1)c1cc(=O)n2ccccc2n1 (stereo not shown) [Compound 211, N-{[6-({[(3,3-difluorocyclopentyl)methyl]amino}methyl)imidazo [1,2-a]pyridin-2-yl]methyl}-4-oxo-4H-pyrido[1,2-a]pyrimidine-2-carboxamide] | 19.3 nM | 11400 nM | –
CN(C)C(=O)c1cc(-c2cn(Cc3cn4cc(CNCC5CCC5)ccc4n3)nn2)c2cn[nH]c2c1 [Example 299, 4-[1-[[6-[(cyclobutylmethylamino)methyl]imidazo[1,2-a]pyridin-2-yl]methyl]triazol-4-yl]-N,N-dimethyl-1H-indazole-6-carboxamide] | – | ≥ 30000 nM | 112 nM
CC1CC(CNCc2ccc3nc(CNC(=O)c4cc(=O)n5ccccc5n4)cn3c2)C1 (stereo not shown) [Compound 290, N-[[6-[[(3-methylcyclobutyl)methylamino]methyl]imidazo[1,2-a]pyridin-2-yl]methyl]-4-oxo-pyrido[1,2-a]pyrimidine-2-carboxamide] | – | 6980 nM | 18 nM
O=C(NCc1cn2cc(CN[C@@H]3C[C@H]3C(F)(F)F)ccc2n1)c1cc(=O)n2ccccc2n1 [Compound 112, 4-oxo-N-{[6-({[(1R,2R)-2-(trifluoromethyl)cyclopropyl]amino}methyl)imidazo[1,2-a]pyridin-2-yl]methyl}-4H-pyrido[1,2-a] pyrimidine-2-carboxamide] | 755 nM | 12700 nM | –
Clc1ccc(-c2cn(Cc3cn4cc(CNCC5CCC5)ccc4n3)nn2)c2cn[nH]c12 [Example 315, 1-[2-[[4-(7-chloro-1H-indazol-4-yl)triazol-1-yl]methyl]imidazo[1,2-a]pyridin-6-yl]-N-(cyclobutylmethyl)methanamine] | – | 8360 nM | 19.3 nM
OC1(CNCc2ccc3nc(Cn4cc(-c5cc(Br)cc6[nH]ncc56)nn4)cn3c2)CCCCC1 [Example 294, 1-[[[2-[[4-(6-bromo-1H-indazol-4-yl)triazol-1-yl]methyl]imidazo[1,2-a]pyridin-6-yl]methylamino]methyl]cyclohexanol] | – | 998 nM | 5.8 nM
CC1(C)CCN(Cc2ccc3nc(CNC(=O)c4cc(=O)n5ccccc5n4)cn3c2)CC1 [Compound 193, N-({6-[(4,4-dimethylpiperidin-1-yl)methyl]imidazo[1,2-a]pyridin-2-yl}methyl)-4-oxo-4H-pyrido[1,2-a]pyrimidine-2-carboxamide] | 12.4 nM | 2460 nM | –
Fc1ccc(-c2cn(Cc3cn4cc(CNCC5CCC5)ccc4n3)nn2)c2cn[nH]c12 [Example 305, N-(cyclobutylmethyl)-1-[2-[[4-(7-fluoro-1H-indazol-4-yl)triazol-1-yl]methyl]imidazo[1,2-a]pyridin-6-yl]methanamine] | – | 1830 nM | 6.01 nM
OC1(CNCc2ccc3nc(Cn4cc(-c5ccc(F)c6[nH]ncc56)nn4)cn3c2)CCCCC1 [Example 306, 1-[[[2-[[4-(7-fluoro-1H-indazol-4-yl)triazol-1-yl]methyl]imidazo[1,2-a]pyridin-6-yl]methylamino]methyl]cyclohexanol] | – | 3930 nM | 9.46 nM
